The OligoGym collection
HELM strings list units from the 5' end as sugar, base in round brackets, then linkage (d deoxyribose, r ribose, m 2'-O-methyl, p phosphodiester). Strings are as the collection lists them; they lack the last nucleoside at the 3' end of the tested compound. [moe] = 2'-O-(2-methoxyethyl) (MOE); [sp] = phosphorothioate linkage; [m5C] = 5-methylcytosine

Target: GFAP
Assay: mouse, dose not given
Details: ASO

Substance | 3 h FOB score [score 0-7]
RNA1{[moe](A)[sp].[moe](G)p.[moe]([m5C])p.[moe](A)p.[moe](T)[sp].d(T)[sp].d(T)[sp].d(G)[sp].d(T)[sp].d([m5C])[sp].d(T)[sp].d(T)[sp].d(T)[sp].d(A)[sp].d(T)[sp].[moe](T)p.[moe](T)p.[moe](T)[sp].[moe](T)}$$$$ (last 3' nucleoside missing) | 1
RNA1{[moe](A)[sp].[moe](G)p.[moe]([m5C])p.[moe](A)p.[moe](T)p.[moe](T)p.d(T)[sp].d(G)[sp].d(T)[sp].d([m5C])[sp].d(T)[sp].d(T)[sp].d(T)[sp].d(A)[sp].d(T)[sp].d(T)[sp].[moe](T)p.[moe](T)[sp].[moe](T)}$$$$ (last 3' nucleoside missing) | 1
RNA1{[moe](A)[sp].[moe](G)p.[moe]([m5C])p.[moe](A)p.d(T)[sp].d(T)[sp].d(T)[sp].d(G)[sp].d(T)[sp].d([m5C])[sp].d(T)[sp].d(T)[sp].d(T)[sp].d(A)[sp].[moe](T)p.[moe](T)p.[moe](T)p.[moe](T)[sp].[moe](T)}$$$$ (last 3' nucleoside missing) | 1
RNA1{[moe](A)[sp].[moe](G)p.[moe]([m5C])p.[moe]([m5C])p.[moe](A)[sp].d(G)[sp].d(T)[sp].d(G)[sp].d(T)[sp].d([m5C])[sp].d(T)[sp].d(T)[sp].d([m5C])[sp].d(A)[sp].d([m5C])[sp].[moe](T)p.[moe](T)p.[moe](T)[sp].[moe](G)}$$$$ (last 3' nucleoside missing) | 2
RNA1{[moe](A)[sp].[moe](G)p.[moe]([m5C])p.[moe]([m5C])p.[moe](T)[sp].d(G)[sp].d(G)[sp].d(T)[sp].d(T)[sp].d(A)[sp].d(G)[sp].d([m5C])[sp].d([m5C])[sp].[moe](T)p.[moe](T)p.[moe](T)[sp].[moe]([m5C])}$$$$ (last 3' nucleoside missing) | 4
RNA1{[moe](A)[sp].[moe](G)p.[moe]([m5C])p.[moe]([m5C])p.[moe]([m5C])[sp].d([m5C])[sp].d(A)[sp].d([m5C])[sp].d([m5C])[sp].d(T)[sp].d(A)[sp].d(G)[sp].d(A)[sp].d(A)[sp].d(G)[sp].[moe](T)p.[moe](A)p.[moe]([m5C])[sp].[moe]([m5C])}$$$$ (last 3' nucleoside missing) | 2
RNA1{[moe](A)[sp].[moe](T)p.[moe](G)p.[moe](G)p.[moe](G)[sp].d(T)[sp].d(G)[sp].d(A)[sp].d(G)[sp].d(G)[sp].d(T)[sp].d(G)[sp].d(A)[sp].d(G)[sp].d(G)[sp].[moe](A)p.[moe](G)p.[moe](T)[sp].[moe]([m5C])}$$$$ (last 3' nucleoside missing) | 5
RNA1{[moe](A)[sp].[moe](T)p.[moe](T)p.[moe](T)p.[moe](A)[sp].d(A)[sp].d([m5C])[sp].d(A)[sp].d(T)[sp].d(T)[sp].d(A)[sp].d(A)[sp].d(G)[sp].d(A)[sp].d(G)[sp].[moe]([m5C])p.[moe](A)p.[moe](G)[sp].[moe](G)}$$$$ (last 3' nucleoside missing) | 4
RNA1{[moe](A)[sp].[moe](T)p.[moe](T)p.[moe](T)p.[moe](G)[sp].d(T)[sp].d([m5C])[sp].d(T)[sp].d(T)[sp].d(T)[sp].d(A)[sp].d(T)[sp].d(T)[sp].[moe](T)p.[moe](T)p.[moe](T)[sp].[moe]([m5C])}$$$$ (last 3' nucleoside missing) | 0
RNA1{[moe](A)[sp].[moe](T)p.[moe](T)p.[moe](T)p.[moe](G)[sp].d(T)[sp].d([m5C])[sp].d(T)[sp].d(T)[sp].d(T)[sp].d(A)[sp].d(T)[sp].d(T)[sp].d(T)[sp].d(T)[sp].[moe](T)p.[moe]([m5C])p.[moe]([m5C])[sp].[moe](T)}$$$$ (last 3' nucleoside missing) | 0
RNA1{[moe](A)[sp].[moe](T)p.[moe](T)p.[moe](T)p.[moe](G)p.[moe](G)p.d([m5C])[sp].d(A)[sp].d(G)[sp].d(T)[sp].d(A)[sp].d(T)[sp].d(T)[sp].d(A)[sp].d([m5C])[sp].d([m5C])[sp].[moe](T)p.[moe]([m5C])[sp].[moe](T)}$$$$ (last 3' nucleoside missing) | 0
RNA1{[moe](A)[sp].[moe](T)p.[moe](T)p.[moe](T)p.[moe](G)p.[moe](T)p.d([m5C])[sp].d(T)[sp].d(T)[sp].d(T)[sp].d(A)[sp].d(T)[sp].d(T)[sp].d(T)[sp].d(T)[sp].d(T)[sp].[moe]([m5C])p.[moe]([m5C])[sp].[moe](T)}$$$$ (last 3' nucleoside missing) | 0
RNA1{[moe](A)[sp].[moe](T)p.[moe](T)p.[moe](T)p.[moe](G)p.d(G)[sp].d([m5C])[sp].d(A)[sp].d(G)[sp].d(T)[sp].d(A)[sp].d(T)[sp].d(T)[sp].d(A)[sp].d([m5C])[sp].[moe]([m5C])p.[moe](T)p.[moe]([m5C])[sp].[moe](T)}$$$$ (last 3' nucleoside missing) | 2
RNA1{[moe](A)[sp].[moe](T)p.[moe](T)p.[moe](T)p.d(A)[sp].d(T)[sp].d([m5C])[sp].d(T)[sp].d(G)[sp].d(T)[sp].d(G)[sp].d([m5C])[sp].d(T)[sp].d(T)[sp].[moe](T)p.[moe](A)p.[moe](G)p.[moe](T)[sp].[moe](G)}$$$$ (last 3' nucleoside missing) | 2
RNA1{[moe](A)[sp].[moe](T)p.[moe](T)p.[moe](T)p.d(G)[sp].d(G)[sp].d([m5C])[sp].d(A)[sp].d(G)[sp].d(T)[sp].d(A)[sp].d(T)[sp].d(T)[sp].d(A)[sp].[moe]([m5C])p.[moe]([m5C])p.[moe](T)p.[moe]([m5C])[sp].[moe](T)}$$$$ (last 3' nucleoside missing) | 3
RNA1{[moe](A)[sp].[moe](T)p.[moe](T)p.[moe](T)p.d(G)[sp].d(T)[sp].d([m5C])[sp].d(T)[sp].d(T)[sp].d(T)[sp].d(A)[sp].d(T)[sp].d(T)[sp].d(T)[sp].[moe](T)p.[moe](T)p.[moe]([m5C])p.[moe]([m5C])[sp].[moe](T)}$$$$ (last 3' nucleoside missing) | 0
RNA1{[moe](A)[sp].[moe](T)p.[moe](T)p.[moe]([m5C])p.[moe](A)[sp].d([m5C])[sp].d(T)[sp].d(A)[sp].d(A)[sp].d(T)[sp].d(A)[sp].d(T)[sp].d(T)[sp].[moe](T)p.[moe](A)p.[moe](A)[sp].[moe]([m5C])}$$$$ (last 3' nucleoside missing) | 0
RNA1{[moe](A)[sp].[moe]([m5C])p.[moe](A)p.[moe](G)p.[moe](T)p.d(T)[sp].d([m5C])[sp].d([m5C])[sp].d([m5C])[sp].d(A)[sp].d(G)[sp].d(A)[sp].d(T)[sp].d(A)[sp].d([m5C])[sp].[moe](T)p.[moe]([m5C])p.[moe]([m5C])[sp].[moe](G)}$$$$ (last 3' nucleoside missing) | 2
RNA1{[moe](A)[sp].[moe]([m5C])p.[moe](A)p.[moe](T)p.[moe](T)p.[moe]([m5C])p.d(A)[sp].d([m5C])[sp].d(T)[sp].d(A)[sp].d(A)[sp].d(T)[sp].d(A)[sp].d(T)[sp].d(T)[sp].d(T)[sp].[moe](A)p.[moe](A)[sp].[moe]([m5C])}$$$$ (last 3' nucleoside missing) | 0
RNA1{[moe](A)[sp].[moe]([m5C])p.[moe](A)p.[moe](T)p.[moe](T)p.d([m5C])[sp].d(A)[sp].d([m5C])[sp].d(T)[sp].d(A)[sp].d(A)[sp].d(T)[sp].d(A)[sp].d(T)[sp].d(T)[sp].[moe](T)p.[moe](A)p.[moe](A)[sp].[moe]([m5C])}$$$$ (last 3' nucleoside missing) | 0
RNA1{[moe](A)[sp].[moe]([m5C])p.[moe](A)p.[moe](T)p.d(T)[sp].d([m5C])[sp].d(A)[sp].d([m5C])[sp].d(T)[sp].d(A)[sp].d(A)[sp].d(T)[sp].d(A)[sp].d(T)[sp].[moe](T)p.[moe](T)p.[moe](A)p.[moe](A)[sp].[moe]([m5C])}$$$$ (last 3' nucleoside missing) | 0
RNA1{[moe](A)[sp].[moe]([m5C])p.[moe](G)p.[moe](T)p.[moe]([m5C])p.[moe](A)p.d([m5C])[sp].d(A)[sp].d(T)[sp].d(T)[sp].d([m5C])[sp].d(A)[sp].d([m5C])[sp].d(T)[sp].d(A)[sp].d(A)[sp].[moe](T)p.[moe](A)[sp].[moe](T)}$$$$ (last 3' nucleoside missing) | 0
RNA1{[moe](A)[sp].[moe]([m5C])p.[moe](G)p.[moe](T)p.[moe]([m5C])p.d(A)[sp].d([m5C])[sp].d(A)[sp].d(T)[sp].d(T)[sp].d([m5C])[sp].d(A)[sp].d([m5C])[sp].d(T)[sp].d(A)[sp].[moe](A)p.[moe](T)p.[moe](A)[sp].[moe](T)}$$$$ (last 3' nucleoside missing) | 0
RNA1{[moe](A)[sp].[moe]([m5C])p.[moe](G)p.[moe](T)p.d([m5C])[sp].d(A)[sp].d([m5C])[sp].d(A)[sp].d(T)[sp].d(T)[sp].d([m5C])[sp].d(A)[sp].d([m5C])[sp].d(T)[sp].[moe](A)p.[moe](A)p.[moe](T)p.[moe](A)[sp].[moe](T)}$$$$ (last 3' nucleoside missing) | 0
RNA1{[moe](A)[sp].[moe]([m5C])p.[moe](T)p.[moe](A)p.[moe](G)p.[moe](T)p.d([m5C])[sp].d(A)[sp].d(G)[sp].d([m5C])[sp].d([m5C])[sp].d(T)[sp].d(G)[sp].d(G)[sp].d(T)[sp].d(T)[sp].[moe](A)p.[moe](G)[sp].[moe]([m5C])}$$$$ (last 3' nucleoside missing) | 4
RNA1{[moe](A)[sp].[moe]([m5C])p.[moe](T)p.[moe](A)p.[moe](G)p.d(T)[sp].d([m5C])[sp].d(A)[sp].d(G)[sp].d([m5C])[sp].d([m5C])[sp].d(T)[sp].d(G)[sp].d(G)[sp].d(T)[sp].[moe](T)p.[moe](A)p.[moe](G)[sp].[moe]([m5C])}$$$$ (last 3' nucleoside missing) | 2
RNA1{[moe](A)[sp].[moe]([m5C])p.[moe](T)p.[moe](A)p.[moe](T)[sp].d([m5C])[sp].d(T)[sp].d(A)[sp].d(G)[sp].d(G)[sp].d(A)[sp].d(T)[sp].d(T)[sp].[moe](T)p.[moe](G)p.[moe](G)[sp].[moe]([m5C])}$$$$ (last 3' nucleoside missing) | 4
